Experimental findings from patent US4221705A, “Novel peptide type antibiotic and the process for the production thereof” (priority 1977, dated 1980) are described below.

As a reminder, the LD50 is the dose at which mortality reaches 50%.

The series is described as follows: Acute Toxic characters (Mouse LD50). The series is classed as in vivo. Particulars: HCl salt; for Mouse LD50: female; for LD50: mouse, in vivo, male.
The mark [1] stands for this setting: ip, Intraperitoneal Administration.
Setting [2] is: sc, Subcutaneous Administration.

Take `C[C@@H](O)[C@H](NC(=O)[C@@H](CCCN)NC(=O)[C@H](CC(O)CNC(=N)N)NC(=O)[C@@H](N)CCCNC(=N)N)C(=O)N[C@H](CCCN)C(=O)N[C@@H](CC(O)CNC(=N)N)C(=O)N[C@H](Cc1ccc(O)cc1)C(=O)O` (single isomer, unassigned) [L-ARG--L-(ARG(OH)--D-ORN--L-THR--D-ORN--L-ARG(OH)--D-TYR]: the “Mouse LD50” value lay within 43.2 to 57.2 mg/kg (Intraperitoneal Administration), 24.1 to 34.8 mg/kg (Intravenous Administration), 2400 to 3000 mg/kg (Oral Administration) and 104 to 125 mg/kg (Subcutaneous Administration). Further, the LD50 lay in the range of 43.2 to 57.2 mg/kg under setting [1], 86.8 to 104 mg/kg under setting [2], 24.1 to 34.8 mg/kg (Intravenous Administration) and 2400 to 3000 mg/kg (Oral Administration).
Take `C[C@@H](O)[C@H](NC(=O)[C@@H](CCCN)NC(=O)[C@H](CC(O)CNC(=N)N)NC(=O)[C@@H](N)CCCNC(=N)N)C(=O)N[C@H](CCCN)C(=O)N[C@@H](CCCCN)C(=O)N[C@H](Cc1ccc(O)cc1)C(=O)O` (single isomer, unassigned) [L-ARG--L-ARG(OH)--D-ORN--L-THR--D-ORN--L-Lys--D-TYR]: the “Mouse LD50” value is “above 300 mg/kg” (Intraperitoneal Administration), 144 to 1728 mg/kg (Intravenous Administration), “above 6000 mg/kg” (Oral Administration) and at least 320 mg/kg (Subcutaneous Administration). Besides, the LD50 is over 300 mg/kg under setting [1], at least 320 mg/kg under setting [2], 120 to 144 mg/kg (Intravenous Administration) and over 6000 mg/kg (Oral Administration).
